These results are taken from patent publication US20220370545A1, “INTEGRIN RECEPTOR ALPHA V BETA 3 AND ITS LIGAND INVOLVED IN CHRONIC ITCH” (North Carolina State University, priority 2019, published 2022).

The target in one experiment is T1, TRPA1 (Mus musculus, UniProt Q8BLA8).
T1 construct: endogenous in cells; host or cells: primary mouse dorsal root ganglion neurons
Nature of the experiment: AITC (mustard)-induced calcium response in DRG neurons (specificity control). Particulars: perfusion with 100 nM cilengitide. In kind it is cell-based. The protocol:
(§1) Before imaging, cells were incubated in 350 μL of complete media containing 1 μM Fura-2 AM (Enzo Life Sciences, Farmingdale, New York, United States of America) for 30 min at 37° C. with 5% CO2. During imaging, the cells were perfused with a buffer containing the following: 135 mM sodium chloride, 3.2 mM potassium chloride, 2.5 mM magnesium chloride, 2.8 mM calcium chloride, 667 μM monobasic sodium phosphate, 14.2 mM sodium bicarbonate, and 10.9 mM D-glucose (all from VWR International, Radnor, Pennsylvania, United States of America) with a pH between 7.00 and 7.40. The buffer and the holding plate were kept at 37° C. while imaging. Imaging data was collected on a TE200 inverted microscope using NIS Elements software (Nikon, Melville, New York, United States of America). Cells were exposed to 340 nm and 380 nm wavelengths for 100 ms and the A340/A380 ratio was calculated. Traces were analyzed using Excel and responses greater than 10% of the baseline were counted. Each data point in the scatter plots represented one coverslip.

Experiment [1] has as its system non-histamine dependent (CQ) itch in mice. Briefly: Chloroquine (CQ)-induced itch in mice. In kind it is in vivo, mouse. To be noted: i.v. cilengitide 100 nM 10 minutes prior to CQ 100 μg/10 μl. The protocol:
(§2) All behavioral experiments were conducted during the light cycle at ambient temperature (23° C.). Behavioral assessment of scratching behavior was conducted as described previously (Mishra et al., 2011). Briefly, mice were injected intradermal into the nape of the neck with periostin (R&D), histamine, and chloroquine (all Millipore-Sigma) as previously described (Shimada and LaMotte, 2008). Compounds were diluted in PBS and the same was used as a vehicle. […] Additionally, cilengitide and periostin were combined together (mix) and injected i.d. into the dorsal neck of mouse. Scratching behavior was recorded for 30 minutes and data was presented in bouts per 30 minutes for mice. […] For eye wipes assay, periostin and capsaicin were dropped on mouse cornea and counted wipes for 1-minute. […] For dog's study, periostin (25 μg/25 μl) was injected in the dorsal neck (s.c.) and behavior was recorded and quantified for 30 minutes as “duration of pruritus manifestation” (DPM), as described earlier (Paps et al., 2016). […] When different raters separately scored a single tape, the ratings indicated high interrater reliability (coefficient of correlation, r>0.95). This method of itch readout in NHP has been used and accepted (Ko and Naughton, 2000). The behavior was recorded for 30 minutes duration and number of scratches quantified. […]

For the next experiment, the target named is T2, TRPV1 receptor (Mus musculus, UniProt Q704Y3).
T2 construct: endogenous in cells; host or cells: primary mouse dorsal root ganglion neurons
T2 sequence (Q704Y3 whole entry): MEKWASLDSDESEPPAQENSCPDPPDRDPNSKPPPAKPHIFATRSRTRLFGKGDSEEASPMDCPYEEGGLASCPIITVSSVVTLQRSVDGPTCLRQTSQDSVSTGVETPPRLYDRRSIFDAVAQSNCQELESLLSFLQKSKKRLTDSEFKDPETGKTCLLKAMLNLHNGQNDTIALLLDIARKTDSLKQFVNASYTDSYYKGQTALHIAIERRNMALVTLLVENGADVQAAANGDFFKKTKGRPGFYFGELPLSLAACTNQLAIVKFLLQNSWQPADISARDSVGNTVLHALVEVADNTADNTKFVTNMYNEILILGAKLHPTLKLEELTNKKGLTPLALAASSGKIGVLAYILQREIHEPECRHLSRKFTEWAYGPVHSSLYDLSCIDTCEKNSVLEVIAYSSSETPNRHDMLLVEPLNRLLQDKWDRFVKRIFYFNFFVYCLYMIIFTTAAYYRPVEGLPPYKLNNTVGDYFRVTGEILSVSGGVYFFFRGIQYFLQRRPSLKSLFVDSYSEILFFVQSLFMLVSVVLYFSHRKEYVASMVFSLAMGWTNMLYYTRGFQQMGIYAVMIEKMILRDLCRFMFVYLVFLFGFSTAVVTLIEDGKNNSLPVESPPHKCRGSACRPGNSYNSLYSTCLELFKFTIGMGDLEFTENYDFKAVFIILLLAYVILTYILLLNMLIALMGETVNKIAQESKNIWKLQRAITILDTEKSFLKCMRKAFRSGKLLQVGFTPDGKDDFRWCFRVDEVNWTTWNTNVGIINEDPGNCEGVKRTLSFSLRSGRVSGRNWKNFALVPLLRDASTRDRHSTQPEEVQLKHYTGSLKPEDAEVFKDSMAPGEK
Nature of the experiment: Capsaicin-induced calcium response in DRG neurons (specificity control). In kind it is cell-based. Particulars: perfusion with 100 nM cilengitide. The protocol: as §1
Calcium Imaging: Calcium imaging will be performed on the DRG neurons as previously described (Pitake et al., 2018). Briefly, DRG neurons will be incubated for longer than 30 min in DMEM containing 1 μM of a fluorescent indicator Fura-2 AM (Enzo Life Sciences, Inc., Farmingdale, N.Y., United States of America). The neurons will be perfused in a standard bath solution containing 140 mM NaCl, 5 mM KCl, 2 mM MgCl2, 2 mM CaCl2, 10 mM Hepes and 10 mM D-glucose at pH 7.4 adjusted with NaOH. A calcium-free bath solution will be prepared by omitting 2 mM CaCl2 from the standard bath solution […] adding 5 mM EGTA. Fura-2 fluorescence excited at 340 and 380 nm and emission will be monitored at 510 nm with a digital CCD camera (Andor Clara DR-4152, Andor Technology Ltd, Belfast, United Kingdom). Data will be obtained by every 100 ms using an imaging software (NIS-Elements AR 4.13.04, Nikon Corporation, Tokyo, Japan) and analyzed by Microsoft Excel (Microsoft Corporation, Redmond, Wash., United States of America). Values of calcium responses will be normalized by dividing measured values (F) with average values of initial 5 frames (F0) of each cell and described as F/F0. In this study, changes in each response to an application with F/F0>0.1 will be regarded as positive. Cells not responding to 100 mM KCl, which is applied at the end of each experiment, will be regarded as non-neuronal cells and excluded from analysis.
Additional inhibitors were studied using the calcium imaging method described in Example 3. Briefly, the Fura2-AM calcium imaging method was performed on live dorsal root ganglia (DRG) neurons (ex vivo). The DRG neurons are pre-incubated with the inhibitors P11 (Catalog #4744, Tocris Bioscience, Bristol, United Kingdom) and LM609 (Catalog #MAB1876, Millipore Sigma, Burlington, Mass., United States of America) or vehicle for 10 minutes and further stimulated with periostin or capsaicin in the presence of inhibitors. For Echistatin (Catalog #3202/100U, R&D Biosystems, Minneapolis, Minn., United States of America), MK-0429, and SB273005 (Catalog #S75-40, Selleck Chemicals Llc, Houston, Tex., United States of America), the DRG neurons were perfused with a normal Locke buffer vehicle or modified Locke buffer as described below. The values were normalized with KCl ([…]) to identify neuronal responses in all the calcium response data below.

The subject of experiment [2] is histamine-dependent itch in mice. Nature of the experiment: Histamine-induced itch in mice. The class given is in vivo, mouse. Particulars: i.v. cilengitide 100 nM 10 minutes prior to histamine 100 μg/10 μl. The protocol:
as §2

Another experiment deals with C57BL6J mice. Nature of the experiment: Mouse cheek itch/pain model. In kind it is in vivo. To be noted: periostin 5 μg/20 μl into the cheek. The protocol: as §2
Another experiment relates to mouse cornea. Briefly: Eye wipes assay (corneal application). The class given is in vivo. To be noted: wild-type mice, wiping measured for 1 minute. The protocol: as §2

T1 sequence (Q8BLA8 whole entry): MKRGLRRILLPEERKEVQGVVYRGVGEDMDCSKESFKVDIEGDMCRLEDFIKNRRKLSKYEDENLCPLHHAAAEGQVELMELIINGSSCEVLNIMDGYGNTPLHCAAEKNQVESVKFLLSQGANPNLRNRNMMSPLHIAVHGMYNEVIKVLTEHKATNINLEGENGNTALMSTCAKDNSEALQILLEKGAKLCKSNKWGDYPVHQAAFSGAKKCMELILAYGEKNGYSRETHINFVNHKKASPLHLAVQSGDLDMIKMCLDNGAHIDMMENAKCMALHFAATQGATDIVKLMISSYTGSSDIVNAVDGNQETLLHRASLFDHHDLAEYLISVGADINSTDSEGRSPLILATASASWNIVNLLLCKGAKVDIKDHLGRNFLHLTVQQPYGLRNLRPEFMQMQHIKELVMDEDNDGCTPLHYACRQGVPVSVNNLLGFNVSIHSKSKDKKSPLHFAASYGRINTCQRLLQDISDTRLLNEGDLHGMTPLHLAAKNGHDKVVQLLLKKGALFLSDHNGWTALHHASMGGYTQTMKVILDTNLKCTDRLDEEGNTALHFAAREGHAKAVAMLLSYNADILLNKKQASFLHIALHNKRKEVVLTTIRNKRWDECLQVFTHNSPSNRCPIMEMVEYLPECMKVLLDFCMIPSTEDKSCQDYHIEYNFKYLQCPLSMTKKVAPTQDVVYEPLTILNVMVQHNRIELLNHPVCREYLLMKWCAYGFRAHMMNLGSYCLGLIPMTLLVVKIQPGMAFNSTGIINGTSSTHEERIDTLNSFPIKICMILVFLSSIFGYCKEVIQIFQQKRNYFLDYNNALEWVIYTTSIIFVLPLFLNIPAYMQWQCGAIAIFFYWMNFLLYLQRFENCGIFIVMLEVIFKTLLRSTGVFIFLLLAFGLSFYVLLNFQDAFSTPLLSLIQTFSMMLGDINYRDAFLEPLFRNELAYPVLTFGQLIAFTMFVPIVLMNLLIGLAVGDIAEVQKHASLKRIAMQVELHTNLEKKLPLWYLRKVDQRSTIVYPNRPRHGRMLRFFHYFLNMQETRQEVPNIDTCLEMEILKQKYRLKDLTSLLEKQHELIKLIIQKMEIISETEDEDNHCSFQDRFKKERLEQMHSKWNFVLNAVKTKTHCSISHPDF

Turning to `CC(C)[C@H]1C(=O)N[C@@H](CCCN=C(N)N)C(=O)NCC(=O)N[C@@H](CC(=O)O)C(=O)N[C@H](Cc2ccccc2)C(=O)N1C` [cilengitide, cyclo RGDf-n(Me)V], the AITC-induced calcium response result on TRPA1 is reported as “did not reduce”. The “CQ-induced itch (scratching bouts per 30 minutes)” value in experiment [1] is on record as “inhibits”. Moreover, the capsaicin-induced calcium response entry on TRPV1 receptor is given as “did not reduce”. The “histamine-induced itch (scratching bouts per 30 minutes)” value in experiment [2] is given as “inhibits”.

B1: periostin: fasciclin extracellular matrix protein, endogenous ligand of integrin αvβ3; mouse recombinant used (protein)
chain: NSYYDKVLAHSRIRGRDQGPNVCALQQILGTKKKYFSSCKNWYQGAICGKKTTVLYECCPGYMRMEGMKGCPAVMPIDHVYGTLGIVGATTTQHYSDVSKLREEIEGKGSYTYFAPSNEAWENLDSDIRRGLENNVNVELLNALHSHMVNKRMLTKDLKHGMVIPSMYNNLGLFINHYPNGVVTVNCARVIHGNQIATNGVVHVIDRVLTQIGTSIQDFLEAEDDLSSFRAAAITSDLLESLGRDGHFTLFAPTNEAFEKLPRGVLERIMGDKVASEALMKYHILNTLQCSEAITGGAVFETMEGNTIEIGCEGDSISINGIKMVNKKDIVTKNGVIHLIDEVLIPDSAKQVIELAGKQQTTFTDLVAQLGLASSLKPDGEYTLLAPVNNAFSDDTLSMDQRLLKLILQNHILKVKVGLSDLYNGQILETIGGKQLRVFVYRTAICIENSCMVRGSKQGRNGAIHIFREIIQPAEKSLHDKLRQDKRFSIFLSLLEAADLKDLLTQPGDWTLFAPTNDAFKGMTSEERELLIGDKNALQNIILYHLTPGVYIGKGFEPGVTNILKTTQGSKIYLKGVNETLLVNELKSKESDIMTTNGVIHVVDKLLYPADIPVGNDQLLELLNKLIKYIQIKFVRGSTFKEIPMTVYRPAMTKIQIEGDPDFRLIKEGETVTEVIHGEPVIKKYTKIIDGVPVEITEKQTREERIITGPEIKYTRISTGGGETGETLQKFLQKEVSKVTKFIEGGDGHLFEDEEIKRLLQGDTPAKKIPANKRVQGPRRRSREGRSQ
Take B1: the “scratching behavior, cheek injection” value in the experiment on C57BL6J mice was “robust scratching behavior similar to that of histamine”. Besides, in the experiment on C57BL6J mice (compared to capsaicin), the “wiping (pain behavior), cheek injection” value is given as “did not induce wiping”. Also, the “eye-wiping response to ocular application” value in the experiment with mouse cornea is “No eye-wiping response”.
